Converted amounts (≈) assume the structure as drawn. Read-outs that look alike come from different tables or passages of the source.
Experiments:
[1] = Lipophilicity determination by RP-HPLC (log k, log D); format: physicochemical; details: for log D6.5 / log D7.4 / log k: RP-HPLC; for log D6.5: MeOH 72%/acetate buffered saline pH 6.5; for log D7.4: MeOH 72%/acetate buffered saline pH 7.4; for log k: MeOH 72%/water 28%
Method: Lipophilicity was measured by reversed-phase high performance liquid chromatography (RP-HPLC) under isocratic conditions with methanol as the organic modifier in the aqueous mobile phase and the logarithm of the capacity factor k was calculated, which is used as the lipophilicity index converted to the log P scale. In addition to the log k values, the logarithm of the distribution coefficient DpH at pH 6.5 and 7.4 was determined to clarify the behavior of the compounds under physiological conditions and possible ionization. Instead of water, a buffer of suitable pH was used as part of the mobile phase. In addition to the above-mentioned experimental methods, commercially available ChemBioDraw Ultra 13.0 and ACD/Percepta ver. […] In addition to lipophilicity, other parameters discussed in Ro5, such as molecular weight, number of H-bond donors/acceptors, as well as parameters not reported in Ro5, but characterizing the physicochemical properties of the prepared molecules, such as number of rotatable bonds, were predicted using ACD/Percepta. Moreover, for each R substituent, bulkiness expressed as molar volume (MV [cm^3]), a parameter describing the tail length/branching of each carbamates, was calculated.
A HPLC separation module Agilent 1200 Series (Agilent Technologies, Santa Clara, CA, USA) equipped with a Dual Absorbance Detector (DAD SL G1315C, Agilent Technologies) was used. A chromatographic column Symmetry® C18 5 μm, 4.6 × 250 mm, Part No. W21751W016 (Waters Corp, Milford, MA, USA) was used. The HPLC separation process was monitored by ChemStation for LC 3D systems (Agilent Technologies). […] The total flow of the column was 1.0 mL/min, injection 20 μL, column temperature 40 °C, and sample temperature 10 °C. The detection wavelength of 210 nm was chosen. A KI methanolic solution was used for the determination of the dead times (tD). Retention times (tR) were measured in minutes. The capacity factors k were calculated according to the formula k = (tR − tD)/tD, where tR is the retention time of the solute, and tD is the dead time obtained using an unretained analyte. The distribution coefficients DpH were calculated according to the formula DpH = (tR − tD)/tD. Each experiment was repeated three times.

MRSA 63718 [2] = test: MIC, microtitration broth method; format: cell-based; details: Staphylococcus aureus, MRSA, 24 h
Method: (§1) All the investigated compounds were screened for in vitro antibacterial activity against the reference and quality control strain Staphylococcus aureus ATCC 29213 and clinical isolates of methicillin-resistant S. aureus (MRSA) 63718, SA 630, and SA 3202 [14]. Activities are expressed as the minimum inhibitory concentrations (MICs), see Table 2. In addition to the MICs, the minimum bactericidal concentrations (MBCs) were also determined.
(§2) In vitro antibacterial activity of the synthesized compounds was evaluated against representatives of multidrug-resistant bacteria, three clinical isolates of methicillin-resistant S. aureus: clinical isolate of animal origin, MRSA 63718 (Department of Infectious Diseases and Microbiology, Faculty of Veterinary Medicine, University of Veterinary Sciences Brno, Czech Republic), carrying the mecA gene; and MRSA SA 630 [46] and MRSA SA 3202 [46] (National Institute of Public Health, Prague, Czech Republic), both of human origin. Suspected colonies were confirmed by PCR; a 108bp fragment specific for S. aureus was detected. All isolates were tested for the presence of the mecA gene encoding methicillin resistance. […] Vancomycin-susceptible methicillin-susceptible S. aureus (VS-MSSA) ATCC 29213, obtained from the American Type Culture Collection, was used as the reference and quality control strain. Enterococcus faecalis ATCC 29212 was obtained from the American Type Culture Collection and used as the reference and quality control strain.
(§3) The minimum inhibitory concentrations (MICs) were evaluated by the microtitration broth method according to the CLSI [64, 65] with some modifications. The compounds were dissolved in DMSO (Sigma, St. Louis, MO, USA) to get a concentration […] and diluted in a microtitration plate in an appropriate medium, namely, Cation Adjusted Mueller–Hinton (CaMH, Oxoid, Basingstoke, UK) for staphylococci (S. aureus ATCC 29213, clinical isolates of MRSA 63718, SA 630, and SA 3202) and brain heart infusion (BHI, Oxoid) for E. faecalis ATCC 29212, to reach the final concentration of 256-0.125 µg/mL. The plate was inoculated by the tested microorganisms. The final concentration of bacterial cells was 10^5 for bacteria. Ampicillin (Sigma) was used as reference drugs. A drug-free control and a sterility control were included. The plates were incubated for 24 h at 37 °C for staphylococci and E. faecalis ATCC 29212 (stability evaluation of the carbamates, see Supplementary materials, Table S1). […] The experiments were repeated three times.

MRSA SA 3202 [3] = test: MIC, microtitration broth method; format: cell-based; details: Staphylococcus aureus, 24 h
Method: as §1, §2, §3

MRSA SA 630 [4] = test: MIC, microtitration broth method; format: cell-based; details: Staphylococcus aureus, 24 h
Method: as §1, §2, §3

[5] = system: Staphylococcus aureus ATCC 29213; test: MIC, microtitration broth method; format: cell-based; details: ATCC29213, SA = S. aureus ATCC 29213, 24 h, read-out: MIC
Method: as §1, §2, §3

MRSA 63718 [6] = test: MBC, agar aliquot subculture method; format: cell-based; details: Staphylococcus aureus, MRSA
Method: as §1
(§4) For the S. aureus and MRSA isolates, the agar aliquot subculture method was used as a test for bactericidal agents. After the MIC value determination, the inoculum was transferred to Mueller–Hinton (Oxoid) agar using a multipoint inoculator. The plates were incubated in a thermostat at 37 °C for 24 h. The lowest concentration of test compound at which ≤5 colonies were obtained was then evaluated as MBC, corresponding to a 99.9% decrease in CFU relative to the original inoculum.

MRSA SA 3202 [7] = test: MBC, agar aliquot subculture method; format: cell-based; details: Staphylococcus aureus
Method: as §1, §4

MRSA SA 630 [8] = test: MBC, agar aliquot subculture method; format: cell-based; details: Staphylococcus aureus
Method: as §1, §4

[9] = system: Staphylococcus aureus ATCC 29213; test: MBC, agar aliquot subculture method; format: cell-based; details: ATCC29213, SA = S. aureus ATCC 29213, read-out: MBC
Method: as §1, §4

[10] = system: Enterococcus faecalis ATCC 29212; test: MIC, microtitration broth method; format: cell-based; details: for MIC: ATCC29212, EF = Enterococcus faecalis, 24 h, read-out: MIC
Method: as §2, §3

THP-1 cells = test: In vitro cytotoxicity assay (WST-1); format: cell-based; details: Homo sapiens; THP-1, 24 h, ± SD, n = 6; read-out: IC50
Method: Preliminary in vitro cytotoxicity screening of the investigated compounds was performed using human monocytic leukemia THP-1 cells, see Table 2. The ability to inhibit the human cancer cell viability (IC50) of the compounds was compared to camptothecin toxicity (0.16 ± 0.07 μM). […] However, these values are up to two orders of magnitude higher than their significant antistaphyloccocal concentrations. This fact is also taken into account in the calculated selectivity index (SI), Table 2, where for only three compounds the SI is <20, while for the rest of the agents SI is >20, and for some derivatives even 100 and more. Thus, based on all these observations, it can be concluded that all the tested derivatives can be considered as in vitro non-toxic compounds for the subsequent design of new therapeutic agents.
The human THP-1 cell line (European Collection of Cell Cultures, Salisbury, UK) was cultured in RPMI 1640 medium supplemented with 10% fetal bovine serum, 2% L-glutamine, 1% penicillin, and streptomycin at 37 °C with 5% CO2. Cells were passaged at approximately 1-week intervals. All the tested compounds were prepared and dissolved as mentioned in our previous work.

[11] = system: S. aureus and MRSA isolates; test: Antistaphylococcal MIC, summary over strains; format: cell-based, Staphylococcus aureus; details: Staphylococcus aureus, read-out: MICs
Method: as §1, with “determined. […] MBC values that meet this requirement, i.e., the compound is bactericidal, are indicated in bold in Table 2.” for “determined.”
as §2
The minimum inhibitory concentrations (MICs) were evaluated by the microtitration broth method according to the CLSI [64, 65] with some modifications. […]

| Structure (SMILES) | log D6.5 [1] | log D7.4 [1] | log k [1] | MIC (MRSA 63718 [2]) [µM] | MIC (MRSA SA 3202 [3]) [µM] | MIC (MRSA SA 630 [4]) [µM] | MIC [5] [µM] | MBC (MRSA 63718 [6]) [µM] | MBC (MRSA SA 3202 [7]) [µM] | MBC (MRSA SA 630 [8]) [µM] | MBC [9] [µM] | MIC [10] [µM] | IC50 (THP-1 cells) [nM] | MIC [11] [µM] | anti-enterococcal activity (in words) ([10]; E. faecalis ATCC 29212) | lipophilicity (experimental log k/log D, approximate) [1] | lipophilicity (experimental log k/log D, approximate) ([1]; listed as 15) |
| --- | --- | --- | --- | --- | --- | --- | --- | --- | --- | --- | --- | --- | --- | --- | --- | --- | --- |
| CCCCNC(=O)Oc1c(C(=O)Nc2cc(Cl)c(Cl)cc2Cl)ccc2ccccc12 [Compound 4, 2-[N-(2,4,5-Trichlorophenyl)carbamoyl]naphthalen-1-yl butyl carbamate] | 0.9980 | 1.1401 | 1.0756 | 0.135 (≈ 0.0629 µg/mL) | 0.069 (≈ 0.0321 µg/mL) | 0.017 (≈ 0.00792 µg/mL) | 0.034 (≈ 0.0158 µg/mL) | 0.268 (≈ 0.125 µg/mL) | 0.069 (≈ 0.0321 µg/mL) | 0.537 (≈ 0.25 µg/mL) | 0.034 (≈ 0.0158 µg/mL) | 275 (≈ 128 µg/mL) | 3420 ± 100 | 0.018 to 0.064 (≈ 0.00838 to 0.0298 µg/mL) |  |  |  |
| CCCCCCCNC(=O)Oc1c(C(=O)Nc2cc(Cl)c(Cl)cc2Cl)ccc2ccccc12 [Compound 7, 2-[N-(2,4,5-Trichlorophenyl)carbamoyl]naphthalen-1-yl heptyl carbamate] | 1.6765 | 1.6863 |  | 0.246 (≈ 0.125 µg/mL) | 0.246 (≈ 0.125 µg/mL) | 0.246 (≈ 0.125 µg/mL) | 0.124 (≈ 0.063 µg/mL) | 0.246 (≈ 0.125 µg/mL) | 0.246 (≈ 0.125 µg/mL) | 0.492 (≈ 0.25 µg/mL) | 0.124 (≈ 0.063 µg/mL) | 63 (≈ 32 µg/mL) | 3190 ± 440 |  | moderate activity |  |  |
| O=C(NCCCCc1ccccc1)Oc1c(C(=O)Nc2cc(Cl)c(Cl)cc2Cl)ccc2ccccc12 [Compound 14, 2-[N-(2,4,5-Trichlorophenyl)carbamoyl]naphthalen-1-yl 4-phenylbutyl carbamate] | 1.5193 | 1.5191 | 1.5167 | 0.231 (≈ 0.125 µg/mL) | 0.231 (≈ 0.125 µg/mL) | 0.116 (≈ 0.0629 µg/mL) | 0.116 (≈ 0.0629 µg/mL) | 0.231 (≈ 0.125 µg/mL) | 0.461 (≈ 0.25 µg/mL) | 0.461 (≈ 0.25 µg/mL) | 0.116 (≈ 0.0629 µg/mL) | 118 (≈ 63.9 µg/mL) | 2730 ± 370 |  |  | ca. 1.25 | ca. 1.52 |
| O=C(NCCc1ccccc1)Oc1c(C(=O)Nc2cc(Cl)c(Cl)cc2Cl)ccc2ccccc12 [Compound 13, 2-[N-(2,4,5-Trichlorophenyl)carbamoyl]naphthalen-1-yl 2-phenylethyl carbamate] | 1.2473 | 1.2470 | 1.2450 | 0.123 (≈ 0.0632 µg/mL) | 0.123 (≈ 0.0632 µg/mL) | 0.062 (≈ 0.0319 µg/mL) | 0.062 (≈ 0.0319 µg/mL) | 0.123 (≈ 0.0632 µg/mL) | 0.243 (≈ 0.125 µg/mL) | 0.973 (≈ 0.5 µg/mL) | 0.062 (≈ 0.0319 µg/mL) | 125 (≈ 64.2 µg/mL) | 2790 ± 280 |  |  |  |  |
